Assay results as given in patent US20200264182A1, “METHOD FOR DETECTING PROSTATE CANCER” (J-OIL MILLS, INC., priority 2017, published 2020).

Test: FAC binding constant
Details: at 25° C.
Experimental: Details of the FAC method are described in Patent Document 2 filed by some of the present applicants, for example.
Binding constants (at 25° C.) of PhoSL, SRL, NSL and LSL belonging to the fucose α1→6 specific lectin for various sugar chains are shown in Tables 2 to 5.

[1] = sugar chain having fucose other than α1→6 fucose

Binding constant for sugar chain No. 728 (Table 3: sugar chain having fucose other than α1→6 fucose): <1000 M⁻¹
Binding constant for sugar chain No. 419 [1]: <1000 M⁻¹
Binding constant for sugar chain No. 420 [1]: <1000 M⁻¹
Binding constant for sugar chain No. 718 [1]: <1000 M⁻¹
Binding constant for sugar chain No. 719 [1]: <1000 M⁻¹
Binding constant for sugar chain No. 720 [1]: <1000 M⁻¹
Binding constant for sugar chain No. 721 [1]: <1000 M⁻¹
Binding constant for sugar chain No. 722 [1]: <1000 M⁻¹
Binding constant for sugar chain No. 723 [1]: <1000 M⁻¹
Binding constant for sugar chain No. 726 [1]: <1000 M⁻¹
Binding constant for sugar chain No. 727 [1]: <1000 M⁻¹
Binding constant for sugar chain No. 729 [1]: <1000 M⁻¹
Binding constant for sugar chain No. 730 [1]: <1000 M⁻¹
Binding constant for sugar chain No. 731 [1]: <1000 M⁻¹
Binding constant for sugar chain No. 739 [1]: <1000 M⁻¹
Binding constant for sugar chain No. 909 [1]: <1000 M⁻¹
Binding constant for sugar chain No. 910 [1]: <1000 M⁻¹
Binding constant for sugar chain No. 931 [1]: <1000 M⁻¹
Binding constant for sugar chain No. 932 [1]: <1000 M⁻¹
Binding constant for sugar chain No. 933 [1]: <1000 M⁻¹
Binding constant for sugar chain No. 001 (sugar chain having no fucose): <1000 M⁻¹
Binding constant for sugar chain No. 002 (sugar chain having no fucose): <1000 M⁻¹
Binding constant for sugar chain No. 003 (sugar chain having no fucose): <1000 M⁻¹
Binding constant for sugar chain No. 004 (sugar chain having no fucose): <1000 M⁻¹
Binding constant for sugar chain No. 005 (sugar chain having no fucose): <1000 M⁻¹
Binding constant for sugar chain No. 006 (sugar chain having no fucose): <1000 M⁻¹
Binding constant for sugar chain No. 007 (sugar chain having no fucose): <1000 M⁻¹
Binding constant for sugar chain No. 008 (sugar chain having no fucose): <1000 M⁻¹
Binding constant for sugar chain No. 009 (sugar chain having no fucose): <1000 M⁻¹
Binding constant for sugar chain No. 010 (sugar chain having no fucose): <1000 M⁻¹
Binding constant for sugar chain No. 011 (sugar chain having no fucose): <1000 M⁻¹
Binding constant for sugar chain No. 012 (sugar chain having no fucose): <1000 M⁻¹
Binding constant for sugar chain No. 013 (sugar chain having no fucose): <1000 M⁻¹
Binding constant for sugar chain No. 014 (sugar chain having no fucose): <1000 M⁻¹
Binding constant for sugar chain No. 101 (sugar chain having no fucose): <1000 M⁻¹
Binding constant for sugar chain No. 103 (sugar chain having no fucose): <1000 M⁻¹
Binding constant for sugar chain No. 104 (sugar chain having no fucose): <1000 M⁻¹
Binding constant for sugar chain No. 105 (sugar chain having no fucose): <1000 M⁻¹
Binding constant for sugar chain No. 107 (sugar chain having no fucose): <1000 M⁻¹
Binding constant for sugar chain No. 108 (sugar chain having no fucose): <1000 M⁻¹
Binding constant for sugar chain No. 301 (sugar chain having no fucose): <1000 M⁻¹
Binding constant for sugar chain No. 304 (sugar chain having no fucose): <1000 M⁻¹
Binding constant for sugar chain No. 305 (sugar chain having no fucose): <1000 M⁻¹
Binding constant for sugar chain No. 307 (sugar chain having no fucose): <1000 M⁻¹
Binding constant for sugar chain No. 308 (sugar chain having no fucose): <1000 M⁻¹
Binding constant for sugar chain No. 313 (sugar chain having no fucose): <1000 M⁻¹
Binding constant for sugar chain No. 314 (sugar chain having no fucose): <1000 M⁻¹
Binding constant for sugar chain No. 323 (sugar chain having no fucose): <1000 M⁻¹
Binding constant for sugar chain No. 501 (sugar chain having no fucose): <1000 M⁻¹
Binding constant for sugar chain No. 502 (sugar chain having no fucose): <1000 M⁻¹
Binding constant for sugar chain No. 503 (sugar chain having no fucose): <1000 M⁻¹
Binding constant for sugar chain No. 504 (sugar chain having no fucose): <1000 M⁻¹
Substance: NSL: fucose α1→6 specific lectin that can be extracted from Naematoloma sublateritium, SEQ ID No. 4 or 5
